According to the NIST ThermoML archive (doi:10.1021/je0601208):
Numbers after ± are expanded uncertainties.

What was measured:
[1] = refractive index (Na D-line) (dimensionless); xn = mol fraction of the nth substance listed; conditions: 100.5 kPa, Liquid, Standard Abbe refractometry, x2 = 0
[2] = xn = mol fraction of the nth substance listed; conditions: x2 = 0
[3] = for mass density: 101.33 kPa, Liquid
[4] = refractive index (Na D-line) (dimensionless); conditions: 101.33 kPa, Liquid, Standard Abbe refractometry

| SMILES | refractive index ([1]; 288.15 K) | refractive index ([1]; 298.15 K) | refractive index ([1]; 308.15 K) | refractive index ([1]; 318.15 K) | surface tension liquid-gas ([2]; 288.15 K) | surface tension liquid-gas ([2]; 298.15 K) | surface tension liquid-gas ([2]; 308.15 K) | surface tension liquid-gas ([2]; 318.15 K) | surface tension liquid-gas ([3]; 288.15 K) | surface tension liquid-gas ([3]; 298.15 K) | mass density ([3]; 298.15 K) | surface tension liquid-gas ([3]; 308.15 K) | surface tension liquid-gas ([3]; 318.15 K) | refractive index ([4]; 288.15 K) | refractive index ([4]; 298.15 K) | refractive index ([4]; 308.15 K) | refractive index ([4]; 318.15 K) |
| --- | --- | --- | --- | --- | --- | --- | --- | --- | --- | --- | --- | --- | --- | --- | --- | --- | --- |
| CCO [ethanol] + CCCC(=O)OCCC(C)C | 1.36333 ± 0.00031 | 1.35941 ± 0.00031 | 1.35531 ± 0.00031 | 1.35148 ± 0.00031 | 23 ± 0.6 mN/m | 22.3 ± 0.6 mN/m | 21.5 ± 0.6 mN/m | 20.6 ± 0.6 mN/m | – | – | – | – | – | – | – | – | – |
| CCO [ethanol] + CC(=O)OCCC(C)C | 1.36333 ± 0.00031 | 1.35941 ± 0.00031 | 1.35531 ± 0.00031 | 1.35148 ± 0.00031 | 23 ± 0.4 mN/m | 22.3 ± 0.4 mN/m | 21.5 ± 0.4 mN/m | 20.6 ± 0.4 mN/m | – | – | – | – | – | – | – | – | – |
| CCO [ethanol] + CCCCCC(=O)OCC | 1.36333 ± 0.00031 | 1.35941 ± 0.00031 | 1.35531 ± 0.00031 | 1.35148 ± 0.00031 | 23 ± 0.6 mN/m | 22.3 ± 0.6 mN/m | 21.5 ± 0.6 mN/m | 20.6 ± 0.6 mN/m | – | – | – | – | – | – | – | – | – |
| CCO [ethanol] + CCOC(=O)c1ccccc1 | 1.36333 ± 0.00031 | 1.35941 ± 0.00031 | 1.35531 ± 0.00031 | 1.35148 ± 0.00031 | 23 ± 0.6 mN/m | 22.3 ± 0.6 mN/m | 21.5 ± 0.6 mN/m | 20.6 ± 0.6 mN/m | – | – | – | – | – | – | – | – | – |
| CCO [ethanol] + CCOC(=O)Cc1ccccc1 | 1.36333 ± 0.00031 | 1.35941 ± 0.00031 | 1.35531 ± 0.00031 | 1.35148 ± 0.00031 | 23 ± 0.6 mN/m | 22.3 ± 0.6 mN/m | 21.5 ± 0.6 mN/m | 20.6 ± 0.6 mN/m | – | – | – | – | – | – | – | – | – |
| CCOC(=O)c1ccccc1 [ethyl benzoate] | – | – | – | – | – | – | – | – | 35.7 ± 0.7 mN/m | 34.6 ± 0.7 mN/m | 1041.42 ± 0.14 kg/m3 | 33.3 ± 0.7 mN/m | 32.5 ± 0.7 mN/m | 1.5076 ± 0.00032 | 1.50328 ± 0.00032 | 1.49863 ± 0.00032 | 1.49391 ± 0.00032 |
| CCO [ethanol] + CCCCCCCC(=O)OCC | 1.36333 ± 0.00031 | 1.35941 ± 0.00031 | 1.35531 ± 0.00031 | 1.35148 ± 0.00031 | 23 ± 0.6 mN/m | 22.3 ± 0.6 mN/m | 21.5 ± 0.6 mN/m | 20.6 ± 0.6 mN/m | – | – | – | – | – | – | – | – | – |
| CCCC(=O)OCCC(C)C [3-methylbutyl butanoate] | – | – | – | – | – | – | – | – | 25.7 ± 0.6 mN/m | 24.7 ± 0.6 mN/m | 858.69 ± 0.44 kg/m3 | 24 ± 0.6 mN/m | 23.1 ± 0.6 mN/m | 1.41259 ± 0.00034 | 1.40815 ± 0.00034 | 1.40374 ± 0.00034 | 1.39927 ± 0.00034 |
| CC(=O)OCCC(C)C [3-methylbutyl ethanoate] | – | – | – | – | – | – | – | – | 25.4 ± 0.4 mN/m | 24.3 ± 0.4 mN/m | 867.91 ± 0.45 kg/m3 | 23.4 ± 0.4 mN/m | 22.4 ± 0.4 mN/m | 1.40288 ± 0.00034 | 1.39836 ± 0.00034 | 1.39365 ± 0.00034 | 1.38895 ± 0.00034 |
| CCOC(=O)Cc1ccccc1 [ethyl phenylacetate] | – | – | – | – | – | – | – | – | 35.9 ± 0.7 mN/m | 34.6 ± 0.7 mN/m | 1026.96 ± 0.35 kg/m3 | 33.5 ± 0.7 mN/m | 32.8 ± 0.7 mN/m | 1.49971 ± 0.00034 | 1.49513 ± 0.00034 | 1.49063 ± 0.00034 | 1.48583 ± 0.00034 |
| CCO [ethanol] | – | – | – | – | – | – | – | – | 23 ± 0.4 mN/m | 22.3 ± 0.4 mN/m | 785 ± 0.24 kg/m3 | 21.5 ± 0.4 mN/m | 20.6 ± 0.4 mN/m | 1.36333 ± 0.00031 | 1.35941 ± 0.00031 | 1.35531 ± 0.00031 | 1.35148 ± 0.00031 |
| CCCCCCCC(=O)OCC [ethyl octanoate] | – | – | – | – | – | – | – | – | 27.2 ± 0.6 mN/m | 26.4 ± 0.6 mN/m | 862.15 ± 0.41 kg/m3 | 25.5 ± 0.6 mN/m | 24.7 ± 0.6 mN/m | 1.41991 ± 0.00033 | 1.4156 ± 0.00033 | 1.41137 ± 0.00033 | 1.40702 ± 0.00033 |
| CCCCCC(=O)OCC [ethyl hexanoate] | – | – | – | – | – | – | – | – | 26.4 ± 0.6 mN/m | 25.4 ± 0.6 mN/m | 866.29 ± 0.21 kg/m3 | 24.5 ± 0.6 mN/m | 23.6 ± 0.6 mN/m | 1.4095 ± 0.00032 | 1.40504 ± 0.00032 | 1.40055 ± 0.00032 | 1.39597 ± 0.00032 |
